Test results as given in patent publication US20260109712A1, “RIFAMYCINS FOR NONTUBERCULOUS MYCOBACTERIA” (priority 2022, published 2026).
Values after ≈ are worked out from the molar mass of the structure shown. Like-named read-outs stand apart in the source and are kept apart here.

How the values were obtained:
Δarr M. abscessus = assay: MIC assay, isogenic arr-deleted strain; assay type: cell-based, Mycobacterium abscessus; conditions: arr-deleted strain; 90% growth inhibition
Procedure: (§1) MIC determination was carried out in 96-well plate format as previously described.^[13-14] 96-well plates were initially set up with 100 μL of 7H9 per well. For each compound, a ten-point two-fold dilution series starting at twice the desired highest concentration was dispensed onto the 96-well plates using a Tecan D300e Digital Dispenser, with the DMSO concentration normalized to 2%. M. abscessus culture grown to mid-log phase (OD600=0.4-0.6) was diluted to OD600=0.1 (1×10^7 CFU/mL). […] Untreated control wells are included on each plate that contain bacteria suspension and 1% DMSO. Plates were sealed with parafilm, stored in boxes with wet paper towels and incubated at 37° C. with shaking (110 RPM). Plates were incubated for 3 days. To determine growth, OD600 was measured using a Tecan Infinite M200 plate reader on Day 0 and Day 3. Two biological replicates were performed. Clarithromycin was included in each experiment as a positive control.
(§2) For each well on the 96-well plate, bacterial growth was calculated by subtracting the Day 0 OD600 value from the Day 3 OD600 value. […] For compound-containing wells, percentage growth was calculated by dividing their growth values by the average drug-free bacterial growth for the compound series and multiplying by 100. For each compound series, we plotted percentage growth versus compound concentration.

M. abscessus ATCC 19977 = assay: MIC assay in 96-well plate format, wild-type strain; assay type: cell-based, Mycobacterium abscessus; conditions: for MIC ratio: WT MIC/Δarr strain MIC
Procedure: as §1, §2

[1] = Plasma protein binding assay (rapid equilibrium dialysis); assay type: in vitro ADME; conditions: 4 h, 10000 ng/mL
Procedure: DMSO stocks were spiked into plasma to a concentration of 10,000 ng/mL. 200 μL of spiked plasma was pipetted into the sample chamber of the rapid equilibrium dialysis (RED) cartridge. 350 μL of PBS was added to the adjacent cartridge. The plate containing the RED was sealed and incubated at 37° C. on the thermomixer at 300 RPM for 4 h. After incubation, 50 μL aliquots of plasma were removed and added to 50 μL of blank plasma in a deep well plate (1:1). Similarly, 50 μL aliquots of PBS were removed and added to 50 μL of blank plasma. This created an identical matrix between buffer and non-buffer samples. Samples were processed and quantified as specified in the LC-MS/MS analytical method.

[2] = M. abscessus ATCC 19977, 90% growth inhibition, read-out: WT Mab MIC
[3] = Mycobacterium abscessus ATCC 19977, Table 11, read-out: MIC
[4] = Mycobacteroides abscessus, ATCC19977, Table 15, heterocyclic aromatic carbamates, read-out: WT Mab MIC

| Structure (SMILES) | Δarr Mab MIC (Δarr M. abscessus) [µM] | MIC (M. abscessus ATCC 19977; [2]) [µM] | MIC ratio (M. abscessus ATCC 19977) | MIC (M. abscessus ATCC 19977; [3]) [µM] | other results |
| --- | --- | --- | --- | --- | --- |
| CCC(C)C(=O)OC1C(C)C(OC)C=COC2(C)Oc3c(C)c(O)c4c(c3C2=O)C2=NC3(CCN(CC(C)C)CC3)NC2=C(NC(=O)C(C)=CC=CC(C)C(O)C(C)C(O)C1C)C4=O (mixture of isomers) [5k] | 0.028 | 1.1 | 39.3 |  |  |
| CO[C@H]1/C=C/O[C@@]2(C)Oc3c(C)c(O)c4c(c3C2=O)C2=NC3(CCN(CC(C)C)CC3)NC2=C(NC(=O)/C(C)=C/C=C/[C@H](C)[C@H](O)[C@@H](C)[C@@H](O)[C@@H](C)[C@H](OC(=O)c2cccc(C)c2)[C@@H]1C)C4=O [5c, 25-O-(3-methylbenzoyl)-25-O-desacetyrifabutin] | 0.065 | 0.075 (≈ 0.0692 µg/mL) | 1.2 |  |  |
| CO[C@H]1/C=C/O[C@@]2(C)Oc3c(C)c(O)c4c(c3C2=O)C2=NC3(CCN(CC(C)C)CC3)NC2=C(NC(=O)/C(C)=C/C=C/[C@H](C)[C@H](O)[C@@H](C)[C@@H](O)[C@@H](C)[C@H](OC(=O)c2ccc(C)cc2)[C@@H]1C)C4=O [5d, 25-O-(4-methylbenzoyl)-25-O-desacetyrifabutin] | 0.11 | 0.2 (≈ 0.185 µg/mL) | 1.8 |  |  |
| CO[C@H]1/C=C/O[C@@]2(C)Oc3c(C)c(O)c4c(c3C2=O)C2=NC3(CCN(CC(C)C)CC3)NC2=C(NC(=O)/C(C)=C/C=C/[C@H](C)[C@H](O)[C@@H](C)[C@@H](O)[C@@H](C)[C@H](OC(=O)c2ccccc2F)[C@@H]1C)C4=O [5e, 25-O-(2-fluorobenzoyl)-25-O-desacetyrifabutin] | 0.058 | 0.06 (≈ 0.0556 µg/mL) | 1.0 |  |  |
| CO[C@H]1/C=C/O[C@@]2(C)Oc3c(C)c(O)c4c(c3C2=O)C2=NC3(CCN(CC(C)C)CC3)NC2=C(NC(=O)/C(C)=C/C=C/[C@H](C)[C@H](O)[C@@H](C)[C@@H](O)[C@@H](C)[C@H](OC(=O)N2CCN(C)C(C)C2)[C@@H]1C)C4=O (stereo partly shown) [UMN52] |  |  |  | 0.097 (≈ 0.0917 µg/mL) |  |
| CO[C@H]1/C=C/O[C@@]2(C)Oc3c(C)c(O)c4c(c3C2=O)C2=NC3(CCN(CC(C)C)CC3)NC2=C(NC(=O)/C(C)=C/C=C/[C@H](C)[C@H](O)[C@@H](C)[C@@H](O)[C@@H](C)[C@H](OC(=O)c2cc(Cl)c(Cl)cc2C(=O)O)[C@@H]1C)C4=O [UMN99, 25-O-(6-carboxyl-3,4-dichlorobenzoyl)-25-O-desacetyrifabutin] |  |  |  | 0.1 (≈ 0.102 µg/mL) |  |
| CO[C@H]1/C=C/O[C@@]2(C)Oc3c(C)c(O)c4c(c3C2=O)C2=NC3(CCN(CC(C)C)CC3)NC2=C(NC(=O)/C(C)=C/C=C/[C@H](C)[C@H](O)[C@@H](C)[C@@H](O)[C@@H](C)[C@H](OC(=O)NCc2cn(-c3cccc(Br)c3)nn2)[C@@H]1C)C4=O [UMN104] |  |  |  | 0.032 (≈ 0.0347 µg/mL) |  |
| CO[C@H]1/C=C/O[C@@]2(C)Oc3c(C)c(O)c4c(c3C2=O)C2=NC3(CCN(CC(C)C)CC3)NC2=C(NC(=O)/C(C)=C/C=C/[C@H](C)[C@H](O)[C@@H](C)[C@@H](O)[C@@H](C)[C@H](OC(=O)Nc2ccccc2F)[C@@H]1C)C4=O [UMN106] |  |  |  | 0.034 (≈ 0.032 µg/mL) |  |
| CO[C@H]1/C=C/O[C@@]2(C)Oc3c(C)c(O)c4c(c3C2=O)C2=NC3(CCN(CC(C)C)CC3)NC2=C(NC(=O)/C(C)=C/C=C/[C@H](C)[C@H](O)[C@@H](C)[C@@H](O)[C@@H](C)[C@H](OC(=O)Nc2cccc(F)c2)[C@@H]1C)C4=O [UMN107] |  |  |  | 0.1 (≈ 0.0942 µg/mL) |  |
| CO[C@H]1/C=C/O[C@@]2(C)Oc3c(C)c(O)c4c(c3C2=O)C2=NC3(CCN(CC(C)C)CC3)NC2=C(NC(=O)/C(C)=C/C=C/[C@H](C)[C@H](O)[C@@H](C)[C@@H](O)[C@@H](C)[C@H](OC(=O)Nc2ccc(F)cc2)[C@@H]1C)C4=O [UMN108] |  |  |  | 0.062 (≈ 0.0584 µg/mL) |  |
| CO[C@H]1/C=C/O[C@@]2(C)Oc3c(C)c(O)c4c(c3C2=O)C2=NC3(CCN(CC(C)C)CC3)NC2=C(NC(=O)/C(C)=C/C=C/[C@H](C)[C@H](O)[C@@H](C)[C@@H](O)[C@@H](C)[C@H](OC(=O)Nc2ccccn2)[C@@H]1C)C4=O [UMN117] |  |  |  |  | ƒu [1]: 0.9%; MIC (M. abscessus ATCC 19977; [4]): 0.025 µM (≈ 0.0231 µg/mL) |
| CO[C@H]1/C=C/O[C@@]2(C)Oc3c(C)c(O)c4c(c3C2=O)C2=NC3(CCN(CC(C)C)CC3)NC2=C(NC(=O)/C(C)=C/C=C/[C@H](C)[C@H](O)[C@@H](C)[C@@H](O)[C@@H](C)[C@H](OC(=O)Nc2ccnnc2)[C@@H]1C)C4=O [UMN119] |  |  |  |  | ƒu [1]: 6.1%; MIC (M. abscessus ATCC 19977; [4]): 0.05 µM (≈ 0.0463 µg/mL) |
